“Also recorded” adds a separate entry of the source. Read-outs that look alike come from different tables or passages of the source.
Assays:
MOLT-4 = test: SRB 48 h growth assay, Leukemia MOLT-4; type: cell-based, human; conditions: MOLT-4, Leukemia; for GI50 / CC50: Homo sapiens; for CC50: read-out: Log10 LC50 (converted)
SR = test: SRB 48 h growth assay, Leukemia SR; type: cell-based, human; conditions: for GI50 / CC50: Homo sapiens; for CC50: read-out: Log10 LC50 (converted)
[1] = tested on: eight renal cancer cell line (786-0, A498, ACHN, CAKI-1, SN12C, TK-10, UO-31 and RXF 393); test: in vitro anticancer activity, renal panel; type: cell-based; conditions: Homo sapiens; eight renal cancer cell lines, exposure at least 48 h; read-out: in vitro anticancer activity, range over panel
[2] = tested on: sixty human cancer cell lines; test: anticancer activity against sixty human cancer cell lines (NCI)
Procedure: The compounds were evaluated for anticancer activity against sixty human cancer cells derived from nine cancer types (leukemia cell line, non-small-cell lung cell line, colon cell line, CNS cell line, melanoma cell line, ovarian cell line, prostate cell line, renal cell line and breast cancer cell line) as shown in Table 1. For each compound, dose response curves for each cell line were measured at a minimum of five concentrations at 10 fold dilutions. A protocol of 48 h continuous drug exposure was used and a sulforhodamine B (SRB) protein assay was used to estimate cell viability or growth.

NCI-H322M = test: SRB 48 h growth assay, Non-small Cell Lung NCI-H322M; type: cell-based, human
NCI-H460 = test: SRB 48 h growth assay, Non-small Cell Lung NCI-H460; type: cell-based, human
COLO 205 = test: SRB 48 h growth assay, Colon COLO 205; type: cell-based, human; conditions: COLO 205, Colon
HCT-15 = test: SRB 48 h growth assay, Colon HCT-15; type: cell-based, human; conditions: HCT-15, Colon
HT-29 = test: SRB 48 h growth assay, Colon HT-29; type: cell-based, human; conditions: HT-29, Colon
SF-268 = test: SRB 48 h growth assay, CNS SF-268; type: cell-based, human; conditions: SF-268, CNS
SF-539 = test: SRB 48 h growth assay, CNS SF-539; type: cell-based, human; conditions: SF-539, CNS
SK-MEL-28 = test: SRB 48 h growth assay, Melanoma SK-MEL-28; type: cell-based, human; conditions: SK-MEL-28, Melanoma
IGROV1 = test: SRB 48 h growth assay, Ovarian IGROV1; type: cell-based, human
SN12C = test: SRB 48 h growth assay, Renal SN12C; type: cell-based, human
UO-31 = test: SRB 48 h growth assay, Renal UO-31; type: cell-based, human; conditions: UO-31, Renal
T-47D = test: SRB 48 h growth assay, Breast T-47D; type: cell-based, human
[3] = read-out: Growth Inhibition GI50
[4] = read-out: Log10 GI50 (converted)
[5] = Homo sapiens, read-out: Growth Inhibition GI50
[6] = Homo sapiens, read-out: Log10 GI50 (converted)
[7] = Homo sapiens, read-out: Log10 LC50 (converted)

## C#Cc1ccc(-n2c(/C=C/c3ccc(Cl)c(F)c3)nc3ncccc3c2=O)cc1 [4g, (E)-2-(4-chloro-3-fluorostyryl)-3-(4-ethynylphenyl)pyrido[2,3-d]pyrimidin-4(3H)-one]
MOLT-4; [3]
  GI50: 540 nM
MOLT-4; [4]
  GI50: 550 nM
MOLT-4
  CC50: > 100000 nM
  Log10 TGI50: >−4.00
SR; [3]
  GI50: 330 nM
SR; [4]
  GI50: 331 nM
SR
  CC50: > 100000 nM
[1]
  GI50: 280 to 360 nM
[2]
  anticancer activity (in words): highest anticancer activity; also recorded: good profile at nanomolar range growth inhibition activity in several cancer cell lines

## C#Cc1ccc(-n2c(/C=C/c3ccc4ccccc4c3)nc3ncccc3c2=O)cc1 [4s, (E)-3-(4-Ethynylphenyl)-2-(2-(naphthalen-2-yl)vinyl)pyrido[2,3-d]pyrimidin-4(3H)-one]
MOLT-4; [3]
  GI50: 2000 nM
MOLT-4; [4]
  GI50: 2000 nM
MOLT-4
  CC50: > 100000 nM
  Log10 TGI50: >−4.00
SR
  Log10 TGI50: >−4.00
  CC50: > 100000 nM
SR; [3]
  GI50: 1400 nM
SR; [4]
  GI50: 1410 nM
NCI-H322M
  Log10 TGI50: >−4.00
NCI-H322M; [5]
  GI50: 7300 nM
NCI-H322M; [6]
  GI50: 7240 nM
NCI-H322M; [7]
  CC50: > 100000 nM
NCI-H460
  Log10 TGI50: >−4.00
NCI-H460; [5]
  GI50: 2880 nM
NCI-H460; [6]
  GI50: 2880 nM
NCI-H460; [7]
  LC50: > 100000 nM
COLO 205
  Log10 TGI50: −5.44
COLO 205; [5]
  GI50: 2060 nM
COLO 205; [6]
  GI50: 2040 nM
COLO 205; [7]
  CC50: 3630 nM
HCT-15
  Log10 TGI50: >−4.00
HCT-15; [5]
  GI50: 2910 nM
HCT-15; [6]
  GI50: 2880 nM
HCT-15; [7]
  CC50: > 100000 nM
HT-29
  Log10 TGI50: >−4.00
HT-29; [5]
  GI50: 3260 nM
HT-29; [6]
  GI50: 3240 nM
HT-29; [7]
  CC50: > 100000 nM
SF-268; [5]
  GI50: 2600 nM
SF-268; [6]
  GI50: 2630 nM
SF-268; [7]
  CC50: > 100000 nM
SF-268
  Log10 TGI50: >−4.00
SF-539; [5]
  GI50: 2910 nM
SF-539; [6]
  GI50: 2880 nM
SF-539; [7]
  CC50: > 100000 nM
SF-539
  Log10 TGI50: >−4.00
SK-MEL-28; [5]
  GI50: 4330 nM
SK-MEL-28; [6]
  GI50: 4370 nM
SK-MEL-28; [7]
  CC50: > 100000 nM
SK-MEL-28
  Log10 TGI50: >−4.00
IGROV1
  Log10 TGI50: >−4.00
IGROV1; Homo sapiens, IGROV-1, read-out: Growth Inhibition GI50
  GI50: 2920 nM
IGROV1; Homo sapiens, IGROV-1, read-out: Log10 GI50 (converted)
  GI50: 2950 nM
IGROV1; Homo sapiens, IGROV-1, read-out: Log10 LC50 (converted)
  CC50: > 100000 nM
SN12C
  Log10 TGI50: >−4.00
SN12C; [5]
  GI50: 3290 nM
SN12C; [6]
  GI50: 3310 nM
SN12C; [7]
  CC50: > 100000 nM
UO-31; [5]
  GI50: 3110 nM
UO-31; [6]
  GI50: 3090 nM
UO-31; [7]
  CC50: > 100000 nM
UO-31
  Log10 TGI50: >−4.00
T-47D
  Log10 TGI50: >−4.00
T-47D; Homo sapiens, T47D, read-out: Growth Inhibition GI50
  GI50: 3900 nM
T-47D; Homo sapiens, T47D, read-out: Log10 GI50 (converted)
  GI50: 3890 nM
T-47D; Homo sapiens, T47D, read-out: Log10 LC50 (converted)
  CC50: > 100000 nM
[1]
  GI50: 220 to 430 nM

Source: patent US9783537B2, “3-(4-ethylnylphenyl) pyridopyrimidinone compounds and process for preparation thereof useful as potential anticancer agents” (Council of Scientific & Industrial Research, priority 2013, dated 2017)
